Experiments:
[1] = biological target: human TLR8 (Homo sapiens (Human), UniProt Q9NR97); test: Agonistic activity of compounds on HEK-Blue hTLR8 cells (QUANTI-Blue reporter, OD620); assay type: cell-based
Protocol: • 1. HEK-Blue hTLR8 cells (Invivogen) were cultured in DMEM medium (Hyclone) containing 10% FBS heat-inactivated fetal bovine serum (Corning). On the day of detection, the cell state was observed under a microscope, the cells were collected and resuspended, and the cell concentration was adjusted after counting, 50 μL per well, the total amount of cells was 2×10^4, and the cells were inoculated in a 96-well plate. • 2. After the cells adhered to the wall overnight, 50 μL of the test compound at different concentrations was added to the well plate, so that the final concentrations were 100 μM, 25 μM, 6.25 μM, 1.56 μM, 0.39 μM, 0.10 μM, 0.02 μM, 0.006 μM, 0 μM, or 100 μM, 33.3 μM, 11.11 μM, 3.70 μM, 1.23 μM, 0.41 μM, 0.14 μM, 0.05 μM, 0 μM, and the final concentration of DMSO was 1%. The compound was incubated with the cells in a 37° C., 5% CO2 incubator for 20 hours. • 3. After the incubation, observation was performed under microscope to determine the maximum signal well, the state of the cells with the highest and lowest concentrations of the compound, and whether the compound will crystalize at high concentration. 10 μL of cell culture supernatant was transferred to a new 96-well transparent plate, added with 90 μL of QUANTI-Blue (Invivogen) detection reagent to each well, incubated at 37° C. for 3 hours, and OD620 was read with a multifunctional microplate reader (BMG LABTECH). • 4. EC50 was calculated by fitting with Graphpad Prism software log(agonist) vs. Response—Variable slope, and Emax was the OD620 at which the activation effect of the test compound reached the maximum.

[2] = biological target: human TLR7 (Homo sapiens (Human), UniProt Q9NYK1); test: Agonistic activity of compounds on HEK-Blue hTLR7 cells (QUANTI-Blue reporter, OD620); assay type: cell-based
Sequence of human TLR7 (Q9NYK1 27-1049): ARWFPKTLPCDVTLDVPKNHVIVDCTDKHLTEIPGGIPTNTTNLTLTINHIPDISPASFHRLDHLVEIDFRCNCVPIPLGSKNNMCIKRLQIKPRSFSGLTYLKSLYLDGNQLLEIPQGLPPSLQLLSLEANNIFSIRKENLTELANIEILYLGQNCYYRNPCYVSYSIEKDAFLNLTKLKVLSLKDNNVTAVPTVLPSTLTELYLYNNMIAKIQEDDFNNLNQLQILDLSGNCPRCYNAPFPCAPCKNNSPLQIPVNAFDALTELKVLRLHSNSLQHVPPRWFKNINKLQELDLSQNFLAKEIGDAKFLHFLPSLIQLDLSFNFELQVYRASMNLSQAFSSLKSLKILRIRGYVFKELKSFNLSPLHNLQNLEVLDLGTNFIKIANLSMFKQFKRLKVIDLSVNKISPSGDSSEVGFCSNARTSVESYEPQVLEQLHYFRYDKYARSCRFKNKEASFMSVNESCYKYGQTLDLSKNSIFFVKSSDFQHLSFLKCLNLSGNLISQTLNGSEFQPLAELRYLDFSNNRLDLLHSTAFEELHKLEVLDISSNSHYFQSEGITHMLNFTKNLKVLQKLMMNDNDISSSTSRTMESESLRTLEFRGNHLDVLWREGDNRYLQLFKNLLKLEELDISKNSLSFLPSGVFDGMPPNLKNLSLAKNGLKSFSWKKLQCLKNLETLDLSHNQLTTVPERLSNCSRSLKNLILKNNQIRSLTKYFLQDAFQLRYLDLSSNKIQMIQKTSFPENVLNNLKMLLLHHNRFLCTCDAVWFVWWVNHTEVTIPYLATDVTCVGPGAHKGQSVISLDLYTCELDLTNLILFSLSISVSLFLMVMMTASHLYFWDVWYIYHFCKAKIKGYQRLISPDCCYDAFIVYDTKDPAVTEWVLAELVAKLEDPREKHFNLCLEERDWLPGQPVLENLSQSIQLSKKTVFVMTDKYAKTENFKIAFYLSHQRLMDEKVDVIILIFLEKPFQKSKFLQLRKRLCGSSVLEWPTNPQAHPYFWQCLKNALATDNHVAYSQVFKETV
Protocol: • 1. HEK-Blue hTLR7 cells (Invivogen) were cultured in DMEM medium (Hyclone) containing 10% FBS heat-inactivated fetal bovine serum (Corning). On the day of detection, the cell state was observed under a microscope, the cells were collected and resuspended, and the cell concentration was adjusted after counting, 50 μL per well, the total amount of cells was 2×10^4, and the cells were inoculated in a 96-well plate. • 2. After the cells adhered to the wall overnight, 50 μL of the test compound at different concentrations was added into the well plate, so that the final concentrations were 100 μM, 33.3 μM, 11.11 μM, 3.70 μM, 1.23 μM, 0.41 μM, 0.14 μM, 0.05 μM, 0 μM, and the final concentration of DMSO was 1%. The compound was incubated with the cells in a 37° C., 5% CO2 incubator for 20 h. • 3. After the incubation, observation under microscope was performed to determine the maximum signal well, the states of the cells with the highest and lowest concentrations of the compound, and whether the compound will crystalize at high concentration. 10 μL of cell culture supermatant was taken and transferred to a new 96-well transparent plate, 90 μL of QUANTI-Blue (Invivogen) detection reagent was added to each well, and incubated at 37° C. for 3 h, and OD620 was read with a multifunctional microplate reader (BMG LABTECH). • 4. EC50 was calculated by fitting with Graphpad Prism software log(agonist) vs. response—Variable slope, and Emax was the (D620 at which the activation effect of the test compound reached the maximum.

[3] = OD620 at maximum activation effect

Sequence of human TLR8 (Q9NR97 27-1041): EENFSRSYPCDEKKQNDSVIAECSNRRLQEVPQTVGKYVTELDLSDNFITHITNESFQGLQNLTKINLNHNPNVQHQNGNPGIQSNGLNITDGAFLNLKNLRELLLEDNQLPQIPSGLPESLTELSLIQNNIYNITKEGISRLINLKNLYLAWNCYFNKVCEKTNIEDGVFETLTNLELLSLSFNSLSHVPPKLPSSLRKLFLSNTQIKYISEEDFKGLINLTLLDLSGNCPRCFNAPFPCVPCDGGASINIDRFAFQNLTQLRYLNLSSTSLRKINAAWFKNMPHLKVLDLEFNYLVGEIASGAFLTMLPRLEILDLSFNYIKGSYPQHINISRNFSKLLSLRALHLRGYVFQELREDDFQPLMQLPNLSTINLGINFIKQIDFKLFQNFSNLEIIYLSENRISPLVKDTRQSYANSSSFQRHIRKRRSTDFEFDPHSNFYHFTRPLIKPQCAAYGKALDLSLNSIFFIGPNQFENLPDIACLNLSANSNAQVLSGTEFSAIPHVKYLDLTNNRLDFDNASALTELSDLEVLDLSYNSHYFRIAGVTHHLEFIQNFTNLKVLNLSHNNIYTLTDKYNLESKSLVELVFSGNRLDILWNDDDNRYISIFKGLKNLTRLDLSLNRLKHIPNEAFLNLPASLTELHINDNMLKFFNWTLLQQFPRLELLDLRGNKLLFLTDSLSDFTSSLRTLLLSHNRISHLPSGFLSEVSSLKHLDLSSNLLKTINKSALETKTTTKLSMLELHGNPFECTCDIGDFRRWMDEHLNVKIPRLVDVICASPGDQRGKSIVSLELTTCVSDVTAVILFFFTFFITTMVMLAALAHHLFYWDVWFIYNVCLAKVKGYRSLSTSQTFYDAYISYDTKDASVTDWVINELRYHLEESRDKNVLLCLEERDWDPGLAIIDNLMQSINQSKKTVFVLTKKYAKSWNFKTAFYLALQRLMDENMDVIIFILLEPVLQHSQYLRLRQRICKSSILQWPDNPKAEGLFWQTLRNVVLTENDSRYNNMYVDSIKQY

CCCCc1nc2c(N)nc3cc(C4CCNCC4)sc3c2n1CC1CCOCC1 [Compound 33, 2-butyl-7-(hexahydropyridin-4-yl)-1-(3,4,5,6-tetrahydro-2H-pyran-4-ylmethyl)thieno[3,2-b]imidazo[4,5-d]pyridine-4-amine]
activation effect on human TLR8 (in words) [1]: strong activation effect | Emax (OD620) [1, 3]: 0.67 OD620 | activation effect on human TLR7 (in words) [2]: strong activation effect | Emax (OD620) [2, 3]: 1.46 OD620

From patent US20250257071A9, “TRICYCLIC COMPOUND, METHOD FOR PREPARING SAME, AND USE THEREOF” (Sichuan Kelun-Biotech Biopharmaceutical Co., Ltd., priority 2021, published 2025)
